This is an account of results in patent US10647680B2, “Urea compound, preparation method therefor and medical use thereof” (Ancureall Pharmaceutical (Shanghai) Co., Ltd., priority 2016, dated 2020).

For data set [1], the system named is MV4-11 cell Bab/c nude mouse tumor model. The data set is described as follows: In vivo tumor growth inhibition experiment. The following applies: for effect on body weight of nude mice: compared with the solvent control group. Here is the method:
Xenotransplantation in immunodeficient mice is an effective model for testing in vivo antitumor activity of compounds in animals. Bab/c immunodeficient mice are one of the most commonly used tumor cell xenografts. […] Log-phase MV4-11 cells were collected in a 50 ml of centrifuge tube (Corning), centrifuged at 1,700 rpm for 3 minutes, and the supernatant was discarded. Cells were suspended in a 50 ml 1×RPMI 1640 serum-free medium, and centrifuged, the supernatant was discarded and resuspension was performed. The cells were counted (Countess® Automated Cell Counting Apparatus, Invitrogen), prepared into […], placed on ice, and inoculated subcutaneously with 10×10^6 (0.2 ml) to the right back of 6-8-week female Bab/c nude mice (about 20 g in weight) (purchased from Shanghai Sippr-BK Experimental Animal Co., Ltd., Animal Center of Shanghai University of Traditional Chinese Medicine, approved by Ethical Committee of Shanghai University of Traditional Chinese Medicine). When the tumor grew to a size of 100-200 mm^3, animals were randomly grouped and earmarked and weighed. The treatment group consisted of 3 to 6 nude mice in each group. Drugs were prepared into different concentrations of milky suspension with a solvent PTP solution (30% polyethylene glycol 400, 0.5% Tween-80, 2.5% propylene glycol). Animals were given by oral gavage continuously at a concentration of 0.1 ml/10 g body weight, with a dose range of 0.1-200 mg/kg (the purity of the test compound of the present invention was 99% or more, and the proportion of single impurity was not more than 0.1%). In the control group, 3 to 6 nude mice in each group were given the same volume (0.1 ml/10 g body weight) of solvent PTP solution, and the tumors were measured 3 to 4 times per week. When the average tumor volume in the control group reached 1500 mm^3, or on the 28th day of administration, the experiment ended, then the tumor was weighed and subjected to molecular pathology assay.
The tumor volume was calculated as V=½a×b^2, where a is the length and b is the width. The relative tumor volume (RTV) was calculated based on the measured results and the formula was RTV=Vt/V0, where V0 is the measured tumor volume when administered in divided cages (i.e., do), and Vt is the tumor volume at each measurement.

A short description of data set [2]: Stability test: high temperature test (60° C.). The following applies: exposed at 60° C. for 10 days, HPLC. It counts as physicochemical. The procedure:
The test samples were placed into an integrated drug stability test chamber (YSEI) in an exposed way at 60° C. for 10 days. Samples were taken on the 5th and 10th days and tested according to the drug stability test indices.
(§1) An appropriate amount of test samples was taken and dissolved in acetonitrile-water (1:1), and quantitatively diluted to a solution of about 0.3 mg/ml. 20 ul of solution was injected into a liquid chromatograph (Agilent 1260 Infinity), the chromatogram was then recorded and calculated according to the percentage area method. The mobile phase was a phosphate buffer and acetonitrile aqueous solution, and then a gradient elution was carried out.

Data set [3] can be described thus: Stability test: intense light test (4500LX). In kind it is physicochemical. Conditions: 4500LX±500LX light for 10 days, HPLC. Here is the method:
The test samples were placed into an integrated drug stability test chamber (YSEI) in an exposed way under 4500LX±500LX light for 10 days. Samples were taken on the 5th and 10th days and tested according to the drug stability test indices.
as §1

Data set [4] in a line: Stability test: high humidity test (90%). Conditions: 25° C., relative humidity 90%±5%, 10 days, HPLC. In kind it is physicochemical. The procedure:
The test samples were placed into an integrated drug stability test chamber (YSEI) in an exposed way at 25° C. and relative humidity of 90%±5% for 10 days. Samples were taken on the 5th and 10th days and tested according to the drug stability test indices.
as §1

Where [5] appears, read: drug dose 2.5 mg/kg, 15th day of administration.

Structures can show the parent of a compound that is named as a salt.

As to `CC(C)(C)c1cc(NC(=O)Nc2ccc(-n3cnc4cc(OCCN5CCOCC5)ccc43)cc2)no1` [Compound 16, 1-(5-tert-butyl-isoxazol-3-yl)-3-{4-[5-(2-morpholin-4-yl-ethoxyl)-benzimidazol-1-yl]-phenyl}-urea], the “Tumor Inhibition Rate (%)” value is 82.4% in data set [1] (Dose 2.5 mg/kg, Day 6); 96.8% in data set [1] (Dose 2.5 mg/kg, Day 10); 100% in data set [1] (Dose 2.5 mg/kg, Day 15); 100% in data set [1] (Dose 2.5 mg/kg, Day 20). The tumor outcome in data set [1] (setting [5]) is on record as “tumor disappears completely”. For the same compound, in data set [1] (drug dose 2.5 mg/kg), the “effect on body weight of nude mice” value is listed as “no significant effect”.

`CC(C)(C)c1cc(NC(=O)Nc2ccc(-n3cnc4ccccc43)cc2)[nH]n1` [Compound 68, 1-(4-benzimidazol-1-yl-phenyl)-3-(5-tert-butyl-2H-pyrazol-3-yl)-urea]: the “Tumor Inhibition Rate (%)” value is 14.6% in data set [1] (Dose 2.5 mg/kg, Day 6); 16.2% in data set [1] (Dose 2.5 mg/kg, Day 10); 17.8% in data set [1] (Dose 2.5 mg/kg, Day 15); 37.5% in data set [1] (Dose 2.5 mg/kg, Day 20); 35.3% in data set [1] (Dose 2.5 mg/kg, Day 28); 67.9% in data set [1] (Dose 5 mg/kg, Day 6). Moreover, the “Tumor Inhibition Rate (%)” value was 71.6% in data set [1] (Dose 5 mg/kg, Day 10); 58.5% in data set [1] (Dose 5 mg/kg, Day 15); 50.1% in data set [1] (Dose 5 mg/kg, Day 20); 62.5% in data set [1] (Dose 5 mg/kg, Day 28); 68.9% in data set [1] (Dose 10 mg/kg, Day 6); 81.7% in data set [1] (Dose 10 mg/kg, Day 10). Moreover, the “Tumor Inhibition Rate (%)” value in data set [1] (Dose 10 mg/kg, Day 15) worked out at 90.2%; in data set [1] (Dose 10 mg/kg, Day 20), 94.8%; in data set [1] (Dose 10 mg/kg, Day 28), 98.7%; in data set [1] (Dose 25 mg/kg, Day 6) it was 86.0%; in data set [1] (Dose 25 mg/kg, Day 10) it was 92.5%; in data set [1] (Dose 25 mg/kg, Day 15) it was 93.4%. Moreover, the “Tumor Inhibition Rate (%)” value turned out to be 96.7% in data set [1] (Dose 25 mg/kg, Day 20); 100.0% in data set [1] (Dose 25 mg/kg, Day 28); 92.8% in data set [1] (Dose 50 mg/kg, Day 6); 98.7% in data set [1] (Dose 50 mg/kg, Day 10); 100.0% in data set [1] (Dose 50 mg/kg, Day 15); 94.2% in data set [1] (Dose 100 mg/kg, Day 6). In addition, the “Tumor Inhibition Rate (%)” value is recorded as 100.0% in data set [1] (Dose 100 mg/kg, Day 10); 100.0% in data set [1] (Dose 100 mg/kg, Day 15); 98.9% in data set [1] (Dose 200 mg/kg, Day 6); 100.0% in data set [1] (Dose 200 mg/kg, Day 10); 100.0% in data set [1] (Dose 200 mg/kg, Day 15). Moreover, in data set [1] (dose ≤25 mg/kg), the “effect on body weight of nude mice” value is listed as “no significant effect”. In addition, the “inhibition rate of tumor growth” value in data set [1] (dose ≥25 mg/kg, oral gavage, 6th day after administration) is recorded as “more than 80%”. For the same compound, the tumor outcome in data set [1] (dose ≥25 mg/kg, oral gavage, 28th day) is recorded as “tumor disappears completely”.

Turning to `COc1ccc2c(c1)ncn2-c1ccc(NC(=O)Nc2cc(C(C)(C)C)n[nH]2)cc1` [Compound 71, 1-(5-tert-butyl-2H-pyrazol-3-yl)-3-[4-(5-methoxyl-benzimidazol-1-yl)-phenyl]-urea], the “Tumor Inhibition Rate (%)” value was 37.2% in data set [1] (Dose 0.5 mg/kg, Day 6); 34.5% in data set [1] (Dose 0.5 mg/kg, Day 10); 32.6% in data set [1] (Dose 0.5 mg/kg, Day 15); 36.9% in data set [1] (Dose 0.5 mg/kg, Day 20); 37.3% in data set [1] (Dose 0.5 mg/kg, Day 28); 62.2% in data set [1] (Dose 1 mg/kg, Day 6). The “Tumor Inhibition Rate (%)” value in data set [1] (Dose 1 mg/kg, Day 10) was determined as 64.5%; in data set [1] (Dose 1 mg/kg, Day 15), 69.6%; in data set [1] (Dose 1 mg/kg, Day 20), 65.4%; in data set [1] (Dose 1 mg/kg, Day 28), 66.6%; in data set [1] (Dose 2.5 mg/kg, Day 6) it was 63.7%; in data set [1] (Dose 2.5 mg/kg, Day 10), 76.8%. In addition, the “Tumor Inhibition Rate (%)” value worked out at 77.9% in data set [1] (Dose 2.5 mg/kg, Day 15); 80.5% in data set [1] (Dose 2.5 mg/kg, Day 20); 83.8% in data set [1] (Dose 2.5 mg/kg, Day 28); 84.5% in data set [1] (Dose 5 mg/kg, Day 6); 94.3% in data set [1] (Dose 5 mg/kg, Day 10); 98.8% in data set [1] (Dose 5 mg/kg, Day 15). The “Tumor Inhibition Rate (%)” value in data set [1] (Dose 5 mg/kg, Day 20) worked out at 100.0%; in data set [1] (Dose 5 mg/kg, Day 28), 100%; in data set [1] (Dose 10 mg/kg, Day 6) it was 87.2%; in data set [1] (Dose 10 mg/kg, Day 10), 96.4%; in data set [1] (Dose 10 mg/kg, Day 15), 99.8%; in data set [1] (Dose 10 mg/kg, Day 20), 100%. Moreover, the “Tumor Inhibition Rate (%)” value in data set [1] (Dose 10 mg/kg, Day 28) is recorded as 100%; in data set [1] (Dose 25 mg/kg, Day 6), 90.0%; in data set [1] (Dose 25 mg/kg, Day 10), 98.0%; in data set [1] (Dose 25 mg/kg, Day 15) it was 100.0%; in data set [1] (Dose 25 mg/kg, Day 20), 100.0%; in data set [1] (Dose 25 mg/kg, Day 28), 100%. Further, the “Tumor Inhibition Rate (%)” value in data set [1] (Dose 50 mg/kg, Day 6) was found to be 91.6%; in data set [1] (Dose 50 mg/kg, Day 10), 99.0%; in data set [1] (Dose 50 mg/kg, Day 15) it was 100.0%; in data set [1] (Dose 200 mg/kg, Day 6), 93.1%; in data set [1] (Dose 200 mg/kg, Day 10), 100.0%; in data set [1] (Dose 200 mg/kg, Day 15) it was 100.0%. Further, the “tumor growth inhibitory activity compared with compound 68” value in data set [1] (MV4-11 xenograft) is listed as “stronger tumor growth inhibitory activity”. Also, in data set [1] (dose of 1 to 2.5 mg/kg, oral gavage), the “tumor growth inhibitory activity” value is “obvious tumor growth inhibitory activity”. For the same compound, the “effect on body weight of nude mice” value in data set [1] (dose ≤25 mg/kg) is given as “no significant effect”.

On to `COCCOc1ccc2c(c1)ncn2-c1ccc(NC(=O)Nc2cc(C(C)(C)C)n[nH]2)cc1` [Compound 77 Mesylate, 1-(5-tert-butyl-2H-pyrazol-3-yl)-3-{4-[5-(2-methoxyl-ethoxyl)-benzimidazol-1-yl]-phenyl}-urea], for which, in data set [2], the “High temperature (60° C.)” value is on record as “stable”. Further, the “Lighting (4500 LX)” value in data set [3] is “stable”. For the same compound, the “High Humidity (90%)” value in data set [4] is “stable”.

As for `COCCOc1ccc2c(c1)ncn2-c1ccc(NC(=O)Nc2cc(C(C)(C)C)n[nH]2)cc1` [Compound 77, 1-(5-tert-butyl-2H-pyrazol-3-yl)-3-{4-[5-(2-methoxyl-ethoxyl)-benzimidazol-1-yl]-phenyl}-urea], the “Tumor Inhibition Rate (%)” value was 79.2% in data set [1] (Dose 2.5 mg/kg, Day 6); 93.2% in data set [1] (Dose 2.5 mg/kg, Day 10); 100% in data set [1] (Dose 2.5 mg/kg, Day 15); 100% in data set [1] (Dose 2.5 mg/kg, Day 20). Besides, the tumor outcome in data set [1] (setting [5]) was “tumor disappears completely”. For the same compound, in data set [1] (drug dose 2.5 mg/kg), the “effect on body weight of nude mice” value is recorded as “no significant effect”.

As for `CC(C)(C)c1cc(NC(=O)Nc2ccc(-n3cnc4cc(OCCN5CCOCC5)ccc43)cc2)[nH]n1` [Compound 89, 1-(5-tert-butyl-2H-pyrazol-3-yl)-3-{4-[5-(2-morpholin-4-yl-ethoxyl)-benzimidazol-1-yl]-phenyl}-urea], in data set [2], the “High temperature (60° C.)” value is “stable”. Further, in data set [3], the “Lighting (4500 LX)” value is recorded as “stable”. In addition, the “High Humidity (90%)” value in data set [4] was “stable”. Further, the “Tumor Inhibition Rate (%)” value came out at 60.7% in data set [1] (Dose 2.5 mg/kg, Day 6); 79.4% in data set [1] (Dose 2.5 mg/kg, Day 10); 84.7% in data set [1] (Dose 2.5 mg/kg, Day 15); 87.2% in data set [1] (Dose 2.5 mg/kg, Day 20).
